Measurements published in patent US5049550A, “Diadenosine 5', 5'"-p^1, p^4,-tetraphosphate analogs as antithrombotic agents” (Worcester Foundation for Experimental Biology, priority 1988, dated 1991).
“Also recorded” adds a separate entry of the source. Read-outs that look alike come from different tables or passages of the source. Blank lines part the entries; values can stand above or below the molecule they belong to.

Key:
[1] = test system: ADP-Induced Platelet Aggregation; assay: ADP-induced platelet aggregation in human platelet-rich plasma; assay type: cell-based; conditions: for inhibition of platelet aggregation (in words): FIG. 5 at 12.5 μM; for inhibition of platelet aggregation compared with E10: ADP; for effect on platelet inhibition at 50 μM: even at 50 μM
Method: Human platelet-rich plasma was pre-incubated at 37° C. with the appropriate analogue for 1 minute. Aggregation was then induced by 5 μM ADP. ID50 values (i.e. concentration of analogue at which platelets are inhibited by 50 percent) were obtained from log-dose response plots.
FIG. 5 is a graphic representation of the data.
This Example illustrates that sulfur-containing analogues of AP4 A are as effective as E10 in inhibiting aggregation of platelets. Platelet aggregation was induced by ADP and its inhibition measured as in the previous Example.

[2] = test system: Intracarotid Artery Thrombosis; assay: Intracarotid cannula arterial thrombosis model in rabbits; assay type: in vivo, rabbit
Method: Gurewich, V. and Lipinski, B. Thrombosis Research, 9:101 (1976); Louie, S. and Gurewich, V. Thrombosis Research, 30:323-335 (1983).
Male, New Zealand white rabbits, weighing 2-2.5 kg., were anesthetized with ketamine hydrochloride (100 mg/kg intramuscularly). AP4 A (Boehringer (100 Mannheim Biochemicals, Indianapolis, Ind.), or saline control was infused via a marginal ear vein. A segment of the left common carotid artery was isolated by vascular clamps. A 1 cm. length of polyethylene tubing (PE-90, Clay Adams, Parsippany, N.Y.) was inserted, secured by silk ligatures, and the blood flow re-established by removing the clamps. Blood was sampled from the right carotid artery for assays of AP4 A and ATP, and for platelet aggregation studies.
After preliminary trials, a standard AP4 A infusion protocol was established as follows: A dose of AP4 A at 50 mg/kg was reconstituted in 10 ml of normal saline and infused by pump at a uniform rate over two hours. Control rabbits received 10 ml of saline alone. The intracarotid cannula was inserted, and the re-establishment of blood flow timed at 15 minutes into the infusion. Upon the completion of infusion at 2 hours, the intracarotid tubing was removed, and its contents flushed out into a petri dish. The presence of a clot or of liquid blood contents was noted.
Twenty-five rabbits each were assigned to the experimental group that received AP4 A (50 mg/kg), and the control group that received normal saline alone. The incidence of clot formation in the intracarotid cannula in the two groups was compared by the Chi-Square test.
Initially, twelve rabbits received a constant infusion of E10 over a 2 hour period at a dosage of 100 mg in 10 ml. These intravenous infusions were performed as described above for AP4 A.
In addition, 30 mg of E10 in 3 ml saline was administered as a single injection over a one minute time span at the beginning of the cannulation period.

[3] = test system: ADP-induced platelet aggregation; assay: Kinetics of ADP-induced platelet aggregation (double-reciprocal plot); assay type: cell-based; conditions: FIG. 6
Method: Changes in light transmission reflecting the velocity of ADP-induced platelet aggregability was determined using a platelet aggregometer. Born, G.V.P., Nature 184:927-929 (1962). […] The Y points on the X-intercept are altered by factors [formula] where I is the concentration of inhibitor, and Ki is a characteristic constant. Points on the X-intercept are given by the expression [formula] intercept when [I]=0. When [I] is known, the equation can be solved for Ki.

[4] = test system: Intracarotid Artery Thrombosis; conditions: rabbit model, literature; cited from earlier work
[5] = test system: rabbit platelet aggregation by ADP; assay: ADP-induced aggregation of rabbit platelets; assay type: cell-based; conditions: ADP 2×10^-5 M
Method: (§1) Rabbit carotid arterial blood was collected in 3.8% sodium citrate (9 volumes blood to 1 volume citrate). Platelet rich plasma (PRP) and platelet poor plasma (PPP) were prepared by centrifugation at 150 g and 1,000 g for 10 minutes respectively. Aggregation studies were performed in a Chrono-Log (Havertown, Pa.) aggregometer with ADP or collagen as aggregating agents. ADP (Sigma Chemical Co.) was used in a final concentration of 2×10^-5 M. Calf skin collagen (Sigma Chemical Co.) was used in a final concentration of 200 ug/ml.
(§2) The effect of AP4 A on rabbit platelet aggregation by ADP and collagen was tested. […] The anti-aggregatory effect of AP4 A was detected at a concentration of 2×10^-4 M (tenfold that of ADP) and increased in a dose-response pattern with increasing concentrations (FIG. 1).

[6] = plasma; cited from earlier work
platelets = conditions: cited from earlier work
[7] = test system: rabbit platelet aggregation by collagen; assay: Collagen-induced aggregation of rabbit platelets; assay type: cell-based; conditions: collagen 200 ug/ml
Method: as §1, §2

[8] = Homo sapiens, Platelet, Table 3, 5 μM ADP, 1 minute pre-incubation at 37° C., read-out: ID50 (concentration of analogue at which platelets are inhibited by 50 percent)
[9] = E10 30 mg, single injection over one minute, 6 rabbits
[10] = E10 100 mg, 2 h infusion, 12 rabbits
[11] = E10 total (100 mg + 30 mg series), 18 rabbits
[12] = Homo sapiens, Platelet, Table 5, sulfur-containing analogues, induced by ADP, read-out: ID50 (the source's name)

Molecule: Nc1ncnc2c1ncn2[C@@H]1O[C@H](COP(=O)(O)OP(=O)(O)CCP(=O)(O)OP(=O)(O)OC[C@H]2O[C@@H](n3cnc4c(N)ncnc43)[C@H](O)[C@@H]2O)[C@@H](O)[C@H]1O [Analogue E3, App(CH2)2 ppA]
IC50 [1, 8]: 11 µM

Molecule: Nc1ncnc2c1ncn2[C@@H]1O[C@H](COP(=O)(O)OP(=O)(O)CP(=O)(O)OP(=O)(O)OC[C@H]2O[C@@H](n3cnc4c(N)ncnc43)[C@H](O)[C@@H]2O)[C@@H](O)[C@H]1O [Analogue E2, App(CH2)ppA]
IC50 [1, 8]: 22 µM

Molecule: CCCCCCCCNC(C)C(O)c1ccc(SC(C)C)cc1 (stereo not shown) [suloctidil]
effect on clot formation in intracarotid cannula [4]: can be modified

Molecule: OCCN(CCO)c1nc(N2CCCCC2)c2nc(N(CCO)CCO)nc(N3CCCCC3)c2n1 [dipyridamole]
effect on clot formation in intracarotid cannula [4]: can be modified

Molecule: Nc1ncnc2c1ncn2[C@@H]1O[C@H](COP(O)(=S)OP(=O)(O)OP(=O)(O)OP(O)(=S)OC[C@H]2O[C@@H](n3cnc4c(N)ncnc43)[C@H](O)[C@@H]2O)[C@@H](O)[C@H]1O (stereo partly shown) [Analogue E15, Aps ppps A]
IC50 [1, 12]: 6 µM
inhibition of platelet aggregation compared with E10 ([1]; sulfur-containing analogues): an inhibitory effect as great as E10

Molecule: Nc1ncnc2c1ncn2[C@@H]1O[C@H](COP(=O)(O)OP(=O)(O)O)[C@@H](O)[C@H]1O [ADP, adenosine diphosphate, reference compound]
Km [3]: 3 µM
platelet aggregation by agonist [5]: prompt and complete platelet aggregation

Molecule: Nc1ncnc2c1ncn2[C@@H]1O[C@H](COP(O)(=S)OP(=O)(O)C(F)(F)P(=O)(O)OP(O)(=S)OC[C@H]2O[C@@H](n3cnc4c(N)ncnc43)[C@H](O)[C@@H]2O)[C@@H](O)[C@H]1O (stereo partly shown) [Analogue E14, Aps p(CF2)pps A]
IC50 [1, 12]: 17 µM

Molecule: Nc1ncnc2c1ncn2[C@@H]1O[C@H](COP(=O)(O)CP(=O)(O)OP(=O)(O)CP(=O)(O)OC[C@H]2O[C@@H](n3cnc4c(N)ncnc43)[C@H](O)[C@@H]2O)[C@@H](O)[C@H]1O [Analogue E4, Ap(CH2)pp(CH2)pA]
IC50 [1, 8]: > 50 µM
effect on platelet inhibition at 50 μM [1]: no effect on platelet inhibition

Molecule: Nc1ncnc2c1ncn2[C@@H]1O[C@H](COP(=O)(O)OP(=O)(O)OP(=O)(O)OC[C@H]2O[C@@H](n3cnc4c(N)ncnc43)[C@H](O)[C@@H]2O)[C@@H](O)[C@H]1O [AP3 A, diadenosine 5',5'"-p^1, p^3 -triphosphate]
degradation products [6]: hydrolysed in plasma to AMP (adenosine monophosphate) and ADP (adenosine diphosphate)
effect on platelet aggregation (platelets): gradual aggregation of platelets; also recorded: immediately reversible upon the addition of AP4 A

Molecule: CC(=O)Oc1ccccc1C(=O)O [aspirin]
effect on clot formation in intracarotid cannula [4]: can be modified

Molecule: collagen: Calf skin collagen (Sigma Chemical Co.) [reference compound]
platelet aggregation by agonist [7]: prompt and complete platelet aggregation

Molecule: Nc1ncnc2c1ncn2[C@@H]1O[C@H](COP(O)(=S)OP(=O)(O)C(F)P(=O)(O)OP(O)(=S)OC[C@H]2O[C@@H](n3cnc4c(N)ncnc43)[C@H](O)[C@@H]2O)[C@@H](O)[C@H]1O (stereo partly shown) [Analogue E13, Aps p(CHF)pps A]
IC50 [1, 12]: 7 µM
inhibition of platelet aggregation compared with E10 ([1]; sulfur-containing analogues): an inhibitory effect as great as E10

Molecule: Nc1ncnc2c1ncn2C1OC(COP(=O)(O)CP(=O)(O)OP(=O)(O)CP(=O)(O)OCC2OC(n3cnc4c(N)ncnc43)C(O)C2O)C(O)C1O (stereo not shown) [Analogue E1, Ap(CH2)pp(CH2)pA]
IC50 ([1]; Table 3, 5 μM ADP, 1 minute pre-incubation at 37° C., read-out: ID50 (concentration of analogue at which platelets are inhibited by 50 percent)): > 50 µM
effect on platelet inhibition at 50 μM [1]: no effect on platelet inhibition

Further lines, with some results ahead:

IC50 [1, 8]: 6 µM
Molecule: Nc1ncnc2c1ncn2[C@@H]1O[C@H](COP(=O)(O)OP(=O)(O)C(F)(F)P(=O)(O)OP(=O)(O)OC[C@H]2O[C@@H](n3cnc4c(N)ncnc43)[C@H](O)[C@@H]2O)[C@@H](O)[C@H]1O [Analogue E8, App(CF2)ppA]

IC50 [1, 8]: 10 µM
Molecule: Nc1ncnc2c1ncn2[C@@H]1O[C@H](COP(=O)(O)OP(=O)(O)C(Cl)(Cl)P(=O)(O)OP(=O)(O)OC[C@H]2O[C@@H](n3cnc4c(N)ncnc43)[C@H](O)[C@@H]2O)[C@@H](O)[C@H]1O [Analogue E12, App(CCl2)ppA]

IC50 [1, 8]: 3 µM
IC50 [1, 12]: < 5 µM
Molecule: Nc1ncnc2c1ncn2[C@@H]1O[C@H](COP(=O)(O)OP(=O)(O)C(Cl)P(=O)(O)OP(=O)(O)OC[C@H]2O[C@@H](n3cnc4c(N)ncnc43)[C@H](O)[C@@H]2O)[C@@H](O)[C@H]1O (stereo partly shown) [Analogue E10, diadenosine chloromethylene tetraphosphate]
effect on clot formation compared to saline controls ([2]; E10 30 mg and 100 mg series combined): significantly reduces clot formation
% Clots [2, 9]: 33%
Clot Absent (rabbits) [2, 9]: 4
Clot Present (rabbits) [2, 9]: 2
fraction of rabbits with no incidence of clotting ([2]; E10 100 mg): two-thirds
% Clots [2, 10]: 33%
Clot Absent (rabbits) [2, 10]: 8
Clot Present (rabbits) [2, 10]: 4
% Clots [2, 11]: 33%
Clot Absent (rabbits) [2, 11]: 12
Clot Present (rabbits) [2, 11]: 6
Ki ([3]; competitive inhibition of ADP-induced aggregation): 6.7 µM
type / relative strength of inhibition ([3]; double reciprocal plot): superior to AP4 A as a competitive inhibitor
inhibition of platelet aggregation (in words) ([1]; 5 μM ADP): particularly effective; also recorded: the most effective inhibitor of platelet aggregation; also recorded: potent inhibitor of platelet aggregation; also recorded: potent inhibitors of platelet aggregation and blood clot formation

IC50 [1, 8]: 19 µM
Molecule: Nc1ncnc2c1ncn2[C@@H]1O[C@H](COP(=O)(O)C(Cl)P(=O)(O)OP(=O)(O)C(Cl)P(=O)(O)OC[C@H]2O[C@@H](n3cnc4c(N)ncnc43)[C@H](O)[C@@H]2O)[C@@H](O)[C@H]1O (stereo partly shown) [Analogue E9, Ap(CHCl)pp(CHCl)pA]

IC50 [1, 8]: 15 µM
Molecule: Nc1ncnc2c1ncn2[C@@H]1O[C@H](COP(=O)(O)C(F)(F)P(=O)(O)OP(=O)(O)C(F)(F)P(=O)(O)OC[C@H]2O[C@@H](n3cnc4c(N)ncnc43)[C@H](O)[C@@H]2O)[C@@H](O)[C@H]1O [Analogue E7, Ap(CF2)pp(CF2)pA]

IC50 [1, 8]: 4 µM
Molecule: Nc1ncnc2c1ncn2[C@@H]1O[C@H](COP(=O)(O)OP(=O)(O)C(F)P(=O)(O)OP(=O)(O)OC[C@H]2O[C@@H](n3cnc4c(N)ncnc43)[C@H](O)[C@@H]2O)[C@@H](O)[C@H]1O (stereo partly shown) [Analogue E5, App(CHF)ppA]
inhibition of platelet aggregation (in words) ([1]; 5 μM ADP): particularly effective; also recorded: the next most effective in inhibiting platelet aggregation

IC50 [1, 8]: 9 µM
Molecule: Nc1ncnc2c1ncn2[C@@H]1O[C@H](COP(=O)(O)C(Cl)(Cl)P(=O)(O)OP(=O)(O)C(Cl)(Cl)P(=O)(O)OC[C@H]2O[C@@H](n3cnc4c(N)ncnc43)[C@H](O)[C@@H]2O)[C@@H](O)[C@H]1O [Analogue E11, Ap(CCL2)pp(CCl2)pA]

IC50 [1, 8]: 50 µM
Molecule: Nc1ncnc2c1ncn2[C@@H]1O[C@H](COP(=O)(O)C(F)P(=O)(O)OP(=O)(O)C(F)P(=O)(O)OC[C@H]2O[C@@H](n3cnc4c(N)ncnc43)[C@H](O)[C@@H]2O)[C@@H](O)[C@H]1O (stereo partly shown) [Analogue E6, Ap(CHF)pp(CHF)pA]
